Experimental data published in publication PMC4279406, “Simultaneous targeting of PI3Kδ and a PI3Kδ-dependent MEK1/2-Erk1/2 pathway for therapy in pediatric B-cell acute lymphoblastic leukemia” (Oncotarget, 2014).

Assays:
Raji cells = assay: Annexin V-FITC/PI apoptosis assay (FACS); format: cell-based, human; conditions: 72 h
Source text: Figure 3 PI3Kδ inhibition led to blockade of B cell leukemia cells proliferation via induction of cell cycle arrest and apoptosis Raji cells treated with X-370 for indicated times and at serial diluted concentrations were subjected to Annexin V-FITC/PI staining (A) and PI staining (B) and FACS analysis to show cell apoptosis and cell cycle distribution respectively. (C) X-370 inhibited proliferation of human leukemia primary cells. Freshly isolated human primary mononuclear cells from bone marrow samples of patients were treated with X-370 for 72 h and cell viability was assayed using CCK-8 assay. IC50s of each sample were plotted where 10 μM was assigned to specimens with IC50 >10 μM. Each symbol represents an individual patient sample. […]
Apoptosis was measured with annexin V–fluorescein isothiocyanate (FITC) /Propidium iodide (PI) kit (KeyGEN Biotech, Nanjing, China) as previously described. Fluorescence was acquired with a FACSCalibur instrument (BD Biosciences, CA) and analyzed using BD CellQuest Pro software.

[1] = test system: PI3Kγ (MCP-1-stimulated THP-1 monocytes); assay: MCP-1-stimulated Akt phosphorylation in THP-1 cells; format: cell-based; conditions: MCP-1 100 ng/ml
Protocol: In fibroblasts, signals from the insulin-like growth factor 1 (IGF-1) receptor are mediated by PI3Kα, while lysophosphatidic acid (LPA) stimulates G-protein coupled receptor (GPCR) signals via PI3Kβ[26]. After being pre-incubated with X-370, murine embryonic fibroblasts cultured in serum-free medium were stimulated with IGF-1 or LPA. […] Either PI3Kδ or PI3Kγ can be activated in THP-1 monocytes dependent on the stimulating ligand, among which macrophage colony stimulating factor (M-CSF/CSF-1) activates RTK-coupled PI3Kδ, while monocyte chemoattractant protein-1 (MCP-1) activates PI3Kγ [24]. Accordingly, THP-1 cells cultured in serum-free medium were stimulated with MCP-1 or M-CSF in the presence of X-370 and phosphorylated Akt was measured.
Cell lysates were probed with indicated antibodies. The IC50 values were calculated based on relative band intensity measured with ImageQuant™ TL (GE Healthcare Life Sciences, Piscataway, NJ) (B). Data shown are mean values from three independent experiments. (C, D, E, F) X-370 blocked stimuli-triggered PI3Kδ activation. MEF cells and THP-1 were starved in serum-free medium for 12 h or 4 h respectively and X-370 were added for an additional 1 h treatment following stimulation of IGF-1 at 100 ng/ml for MEF cells (C), LPA at 10 μM for MEF cells (D), MCP-1 at 100ng/ml for THP-1 (E) and M-CSF at 50 ng/ml for THP-1 (F). […]

Which “cells that underwent apoptosis” value (Raji cells; 10 μM) does the source give for `O=C(N1CCCC1)N1CCC(n2cnc3c(-n4c(C(F)F)nc5ccccc54)nc(N4CCOCC4)nc32)CC1` [X-370] here?
The value was “about 28%”.

What about the “concentration at which apoptotic cells were detectable” value (Raji cells) of the same molecule?
Its value is ≥ 5 µM.

What about the “MCP-1-stimulated Akt phosphorylation” value [1] of the same molecule?
Its value is “much less activity”.
